Reference: patent US11135234B2, “Effective aminoglycoside antibiotic for multidrug-resistant bacteria” (MICROBIAL CHEMISTRY RESEARCH FOUNDATION, priority 2015, dated 2021)
≈ marks a conversion by molar mass, not a printed value.

Key:
[1] = test system: S. aureus RN4220/pMS520; assay: MIC, agar plate dilution method, S. aureus RN4220/pMS520; assay type: cell-based, Staphylococcus aureus; conditions: for minimal inhibitory concentration (MIC): S. aureus RN4220/pMS520, MRSA; for MIC: Staphylococcus aureus, MRSA, read-out: minimal inhibitory concentration (MIC), S. aureus RN4220/pMS520, MRSA
Description: (§1) As for the representative compounds of a new aminoglycoside antibiotic of the present invention described in Examples, the minimal inhibitory concentration (MIC, μg/mL) was measured for various assay strains of bacteria using an agar plate dilution method in accordance with the method described in the Japan Society of Chemotherapy.

[2] = test system: A. baumannii ATCC BAA-1710; assay: MIC, agar plate dilution method, A. baumannii ATCC BAA-1710; assay type: cell-based, Acinetobacter baumannii; conditions: for minimal inhibitory concentration (MIC): A. baumannii ATCC BAA-1710, MDRA; for MIC: Acinetobacter baumannii, ATCCBAA1710, A. baumannii ATCC BAA-1710, MDRA, read-out: minimal inhibitory concentration (MIC)
Description: as §1

[3] = test system: S. marcescens TH-0447; assay: MIC, agar plate dilution method, S. marcescens TH-0447; assay type: cell-based, Serratia marcescens; conditions: for minimal inhibitory concentration (MIC): S. marcescens TH-0447, AMK-resistant; for MIC: Serratia marcescens, TH0447, S. marcescens TH-0447, AMK-resistant, read-out: minimal inhibitory concentration (MIC)
Description: as §1

[4] = test system: S. marcescens GN6944; assay: MIC, agar plate dilution method, S. marcescens GN6944; assay type: cell-based, Serratia marcescens; conditions: S. marcescens GN6944, GM-resistant; for MIC: Serratia marcescens, read-out: minimal inhibitory concentration (MIC)
Description: as §1

[5] = test system: E. coli JM109/pMW218; assay: MIC, agar plate dilution method, E. coli JM109/pMW218; assay type: cell-based, Escherichia coli; conditions: for minimal inhibitory concentration (MIC): E. coli JM109/pMW218, Sensitive bacterium; for MIC: Escherichia coli, JM109/PMW218, E. coli JM109/pMW218, Sensitive bacterium, read-out: minimal inhibitory concentration (MIC)
Description: as §1

[6] = test system: S. aureus RN4220; assay: MIC, agar plate dilution method, S. aureus RN4220; assay type: cell-based, Staphylococcus aureus; conditions: for minimal inhibitory concentration (MIC): S. aureus RN4220, Sensitive bacterium; for MIC: Staphylococcus aureus, RN4220, S. aureus RN4220, Sensitive bacterium, read-out: minimal inhibitory concentration (MIC)
Description: as §1

[7] = test system: K. pneumoniae ATCC BAA-1705; assay: MIC, agar plate dilution method, K. pneumoniae ATCC BAA-1705; assay type: cell-based, Klebsiella pneumoniae; conditions: for minimal inhibitory concentration (MIC): K. pneumoniae ATCC BAA-1705, KPC-producing strain; for MIC: Klebsiella pneumoniae, ATCCBAA1705, K. pneumoniae ATCC BAA-1705, KPC-producing strain, read-out: minimal inhibitory concentration (MIC)
Description: as §1

[8] = test system: S. aureus MF490; assay: MIC, agar plate dilution method, S. aureus MF490; assay type: cell-based, Staphylococcus aureus; conditions: for minimal inhibitory concentration (MIC): S. aureus MF490, MRSA; for MIC: Staphylococcus aureus, MRSA, read-out: minimal inhibitory concentration (MIC)
Description: as §1

[9] = test system: E. faecium ATCC19434; assay: MIC, agar plate dilution method, E. faecium ATCC19434; assay type: cell-based, Enterococcus faecium; conditions: for minimal inhibitory concentration (MIC): E. faecium ATCC19434; for MIC: Enterococcus faecium, ATCC19434, E. faecium ATCC19434, read-out: minimal inhibitory concentration (MIC)
Description: as §1

[10] = test system: P. aeruginosa MSC17707; assay: MIC, agar plate dilution method, P. aeruginosa MSC17707; assay type: cell-based, Pseudomonas aeruginosa; conditions: for minimal inhibitory concentration (MIC): P. aeruginosa MSC17707, AMK-resistant; for MIC: Pseudomonas aeruginosa, MSC17707, P. aeruginosa MSC17707, AMK-resistant, read-out: minimal inhibitory concentration (MIC)
Description: as §1

[11] = test system: K. pneumoniae ATCC BAA-2146; assay: MIC, agar plate dilution method, K. pneumoniae ATCC BAA-2146; assay type: cell-based, Klebsiella pneumoniae; conditions: for minimal inhibitory concentration (MIC): K. pneumoniae ATCC BAA-2146, NDM-producing strain; for MIC: Klebsiella pneumoniae, ATCCBAA2146, K. pneumoniae ATCC BAA-2146, NDM-producing strain, read-out: minimal inhibitory concentration (MIC)
Description: as §1

[12] = test system: P. aeruginosa MSC01035; assay: MIC, agar plate dilution method, P. aeruginosa MSC01035; assay type: cell-based, Pseudomonas aeruginosa; conditions: P. aeruginosa MSC01035, ABK-resistant; for MIC: Pseudomonas aeruginosa, read-out: minimal inhibitory concentration (MIC)
Description: as §1

[13] = test system: P. aeruginosa PAO1/GN315; assay: MIC, agar plate dilution method, P. aeruginosa PAO1/GN315; assay type: cell-based, Pseudomonas aeruginosa; conditions: for minimal inhibitory concentration (MIC): P. aeruginosa PAO1/GN315, AMK-resistant; for MIC: Pseudomonas aeruginosa, read-out: minimal inhibitory concentration (MIC), P. aeruginosa PAO1/GN315, AMK-resistant
Description: as §1

[14] = test system: P. aeruginosa PAO1; assay: MIC, agar plate dilution method, P. aeruginosa PAO1; assay type: cell-based, Pseudomonas aeruginosa; conditions: for minimal inhibitory concentration (MIC): P. aeruginosa PAO1, Sensitive bacterium; for MIC: Pseudomonas aeruginosa, PAO1, P. aeruginosa PAO1, Sensitive bacterium, read-out: minimal inhibitory concentration (MIC)
Description: as §1

CNC1C(CO)OC(OC2OC3CC(N)C(OC4C(N)CC(N)C(O)C4O)OC3C(O)C2NC)C(O)C1O (stereo not drawn) [Compound A4-a, 4″-N-methylapramycin]
minimal inhibitory concentration (MIC) [1]: 4 mg/L (≈ 7.23 µM) | minimal inhibitory concentration (MIC) [2]: 16 mg/L (≈ 28.9 µM) | minimal inhibitory concentration (MIC) [3]: 8 mg/L (≈ 14.5 µM) | minimal inhibitory concentration (MIC) [4]: 8 mg/L (≈ 14.5 µM) | minimal inhibitory concentration (MIC) [5]: 2 mg/L (≈ 3.61 µM) | minimal inhibitory concentration (MIC) [6]: 4 mg/L (≈ 7.23 µM) | minimal inhibitory concentration (MIC) [7]: 2 mg/L (≈ 3.61 µM) | minimal inhibitory concentration (MIC) [8]: 16 mg/L (≈ 28.9 µM) | minimal inhibitory concentration (MIC) [9]: 32 mg/L (≈ 57.8 µM) | minimal inhibitory concentration (MIC) [10]: 8 mg/L (≈ 14.5 µM) | minimal inhibitory concentration (MIC) [11]: 2 mg/L (≈ 3.61 µM) | minimal inhibitory concentration (MIC) [12]: 8 mg/L (≈ 14.5 µM) | minimal inhibitory concentration (MIC) [13]: 8 mg/L (≈ 14.5 µM) | minimal inhibitory concentration (MIC) [14]: 8 mg/L (≈ 14.5 µM)

CNC1C(O[C@H]2OC(CO)[C@@H](NCCCN)[C@H](O)C2O)O[C@H]2CC(N)[C@@H](O[C@@H]3C(N)C[C@@H](N)C(O)[C@H]3O)OC2C1O (stereo partly drawn) [Compound A4-b, 4″-N-(3-aminopropyl)apramycin]
MIC [1]: 4 mg/L (≈ 6.7 µM) | MIC [2]: 8 mg/L (≈ 13.4 µM) | MIC [3]: 8 mg/L (≈ 13.4 µM) | MIC [4]: 8 mg/L (≈ 13.4 µM) | MIC [5]: 2 mg/L (≈ 3.35 µM) | MIC [6]: 4 mg/L (≈ 6.7 µM) | MIC [7]: 2 mg/L (≈ 3.35 µM) | MIC [8]: 8 mg/L (≈ 13.4 µM) | MIC [9]: 16 mg/L (≈ 26.8 µM) | MIC [10]: 8 mg/L (≈ 13.4 µM) | MIC [11]: 2 mg/L (≈ 3.35 µM) | MIC [12]: 8 mg/L (≈ 13.4 µM) | MIC [13]: 8 mg/L (≈ 13.4 µM) | MIC [14]: 4 mg/L (≈ 6.7 µM)

CNC1C(OC2OC(CO)C(NCC3(N)CCCC3)C(O)C2O)OC2CC(N)C(OC3C(N)CC(N)C(O)C3O)OC2C1O (stereo not drawn) [Compound A4-c, 4″-N-((1-aminocyclopentyl)methyl)apramycin]
minimal inhibitory concentration (MIC) [1]: 4 mg/L (≈ 6.28 µM) | minimal inhibitory concentration (MIC) [2]: 32 mg/L (≈ 50.3 µM) | minimal inhibitory concentration (MIC) [3]: 8 mg/L (≈ 12.6 µM) | minimal inhibitory concentration (MIC) [4]: 8 mg/L (≈ 12.6 µM) | minimal inhibitory concentration (MIC) [5]: 1 mg/L (≈ 1.57 µM) | minimal inhibitory concentration (MIC) [6]: 4 mg/L (≈ 6.28 µM) | minimal inhibitory concentration (MIC) [7]: 1 mg/L (≈ 1.57 µM) | minimal inhibitory concentration (MIC) [8]: 16 mg/L (≈ 25.1 µM) | minimal inhibitory concentration (MIC) [9]: 16 mg/L (≈ 25.1 µM) | minimal inhibitory concentration (MIC) [10]: 32 mg/L (≈ 50.3 µM) | minimal inhibitory concentration (MIC) [11]: 1 mg/L (≈ 1.57 µM) | minimal inhibitory concentration (MIC) [12]: 16 mg/L (≈ 25.1 µM) | minimal inhibitory concentration (MIC) [13]: 16 mg/L (≈ 25.1 µM) | minimal inhibitory concentration (MIC) [14]: 16 mg/L (≈ 25.1 µM)

CNC1C(O[C@H]2OC(CO)[C@@H](NC(CN)CN)[C@H](O)C2O)O[C@H]2CC(N)[C@@H](O[C@@H]3C(N)C[C@@H](N)C(O)[C@H]3O)OC2C1O (stereo partly drawn) [Compound A4-d, 4″-N-(1,3-diaminopropan-2-yl)apramycin]
MIC [1]: 2 mg/L (≈ 3.27 µM) | MIC [2]: 4 mg/L (≈ 6.54 µM) | MIC [3]: 8 mg/L (≈ 13.1 µM) | MIC [4]: 4 mg/L (≈ 6.54 µM) | MIC [5]: 1 mg/L (≈ 1.63 µM) | MIC [6]: 2 mg/L (≈ 3.27 µM) | MIC [7]: 2 mg/L (≈ 3.27 µM) | MIC [8]: 4 mg/L (≈ 6.54 µM) | MIC [9]: 8 mg/L (≈ 13.1 µM) | MIC [10]: 4 mg/L (≈ 6.54 µM) | MIC [11]: 1 mg/L (≈ 1.63 µM) | MIC [12]: 8 mg/L (≈ 13.1 µM) | MIC [13]: 4 mg/L (≈ 6.54 µM) | MIC [14]: 4 mg/L (≈ 6.54 µM)

CNC1C(O[C@H]2OC(CO)[C@@H](N(CCN)CCN)[C@H](O)C2O)O[C@H]2CC(N)[C@@H](O[C@@H]3C(N)C[C@@H](N)C(O)[C@H]3O)OC2C1O (stereo partly drawn) [Compound A4-e, 4″-N,N-bis(2-aminoethyl)apramycin]
MIC [1]: 2 mg/L (≈ 3.2 µM) | MIC [2]: 4 mg/L (≈ 6.39 µM) | MIC [3]: 8 mg/L (≈ 12.8 µM) | MIC [4]: 8 mg/L (≈ 12.8 µM) | MIC [5]: 1 mg/L (≈ 1.6 µM) | MIC [6]: 2 mg/L (≈ 3.2 µM) | MIC [7]: 2 mg/L (≈ 3.2 µM) | MIC [8]: 4 mg/L (≈ 6.39 µM) | MIC [9]: 16 mg/L (≈ 25.6 µM) | MIC [10]: 8 mg/L (≈ 12.8 µM) | MIC [11]: 2 mg/L (≈ 3.2 µM) | MIC [12]: 8 mg/L (≈ 12.8 µM) | MIC [13]: 4 mg/L (≈ 6.39 µM) | MIC [14]: 4 mg/L (≈ 6.39 µM)

CNC1C(O[C@H]2OC(CO)[C@@H](N[C@H]3CC[C@@H](N)CC3)[C@H](O)C2O)O[C@H]2CC(N)[C@@H](O[C@@H]3C(N)C[C@@H](N)C(O)[C@H]3O)OC2C1O (stereo partly drawn) [Compound A4-f, 4″-N-(cis-1,4-4-aminocyclohexyl)apramycin]
MIC [1]: 4 mg/L (≈ 6.28 µM) | MIC [2]: 32 mg/L (≈ 50.3 µM) | MIC [3]: 16 mg/L (≈ 25.1 µM) | MIC [4]: 8 mg/L (≈ 12.6 µM) | MIC [5]: 1 mg/L (≈ 1.57 µM) | MIC [6]: 4 mg/L (≈ 6.28 µM) | MIC [7]: 2 mg/L (≈ 3.14 µM) | MIC [8]: 8 mg/L (≈ 12.6 µM) | MIC [9]: 32 mg/L (≈ 50.3 µM) | MIC [10]: 16 mg/L (≈ 25.1 µM) | MIC [11]: 1 mg/L (≈ 1.57 µM) | MIC [12]: 16 mg/L (≈ 25.1 µM) | MIC [13]: 16 mg/L (≈ 25.1 µM) | MIC [14]: 16 mg/L (≈ 25.1 µM)
